Data set [1] can be described thus: Efficacious mean plasma exposure in rodent tests of anxiolysis and antidepressant activity. It is filed as in vivo. To be noted: rodents; separate tests of anxiolysis and antidepressant activity.
Data set [2] deals with rats. The data set is described as follows: Punished responding procedure (modified Geller-Seifter conflict test). To be noted: for Rate of responding, Punished responding / Rate of responding, Unpunished responding: 60 minute pretreatment.
Source text: In the conflict test, hungry animals were trained to lever-press for food delivery in a standard operant chamber under 2 conditions. In the first condition, referred to as the unsuppressed component, food was delivered on average after 17 lever-presses were made (also called a VR17 schedule of reinforcement). In the second condition, referred to as the suppressed component and signaled by flashing lights inside the operant chamber, food was also delivered following an average of 17 lever-presses, but electric shock was additionally delivered to the floor of the cage under a separate VR17 schedule. Daily sessions consisted of 5 alternating presentations of each component type: suppressed (3 minutes in duration) and unsuppressed (2 minutes in duration).
Compound A was dissolved in distilled deionized water/lactic acid and was administered by mouth in a volume of 1 mL/kg body weight. […] Compound A was administered on Tuesday and Friday and vehicle on Thursday. Monday and Wednesday were washout/baseline days.
Standard 2-lever operant chambers were used (Med Associates). The chambers were fitted with 2 retractable response levers and a stimulus lamp over each of the 2 levers. A pellet dispenser delivered 45 mg food pellets, (Bio Serv) to a cup located inside of the chamber below and between the 2 response levers. A lamp at the top and back of the chamber served as houselights. The grid floors of the operant chambers were interfaced to shock generators and scramblers (Med Associates). All events in the chambers were controlled and monitored by a microprocessor.
There were 2 components in the procedure: 1) an unsuppressed responding component (unpunished) with 2 minutes in duration; and 2) a suppressed responding component (punished) with 3 minutes in duration.
In the unpunished component, the houselights and both stimulus lamps over the response levers were turned on, the lever on the left-hand side of the chamber extended, and a food pellet was delivered following an average of 17 responses on the lever in the chamber (range 3 to 40 responses)—a variable-ratio 17 schedule (VR17).
In the punished component (which followed the unpunished component), the right-hand lever was extended into the chamber; the stimulus lamps and houselights were turned on and off at 1 second intervals, in succession, which served as a cue for this component; and food was available under a VR17 schedule, but was accompanied by an electrical current (0.5 second duration) that was delivered to the grid floor of the chamber under an independent VR17 schedule. The level of the current was adjusted for each individual subject until responding was reduced in the punished component to a level that was about 5% to 10% that of the unpunished component, and ranged from 0.2 mA to 0.75 mA. Unpunished and punished components were separated by 10 second time-out periods in which both response levers were retracted and all stimulus lamps turned off 2 minute unpunished and 3 minute punished components alternated until 5 of each were completed. Daily sessions always began with the unpunished responding component. […] Several doses were tested on a given test day in different subjects. Each dose, then, was tested in different sub-set of rats.
The dependent variables recorded were the rate of responding in unpunished and punished components (total responses/total time under the component) and the number of shocks delivered.
For data set [3], the system named is Male Sprague Dawley rats. The data set is described as follows: Learned helplessness procedure. Particulars: for Mean Center Crossings ± SEM: gauge of motor activity; for Mean Escape Failures ± (SEM): of 50 trials. The format is in vivo, rat. Here is the method:
Male Sprague Dawley rats were exposed to inescapable electrical stimulation for 2 successive, daily 1 hour periods (conditioning), and then subsequently trained to avoid or escape the electrical stimulation by running to the opposite side of the test cage. […] In the training phase, when the electrical stimulation was escapable, the number of escape failures was recorded. Standard shuttle cages (20 L×16 W×21 centimeters H) fitted with a grid floor were used. The chambers could be partitioned with a closed partition or with an archway that allowed the animals to pass between the 2 sides of the cage. A computer controlled and monitored all events in the chamber.
The procedure utilized involved an induction phase and an avoidance training phase. In the induction phase, rats were enclosed in one side of the shuttle cage and electrical stimulation (2 mA, […]) was delivered to the floor of the cage every 2, 5 or 10 seconds (randomly selected for each trial) until 90 electrical stimulations were delivered. Subjects had no opportunity to escape or to avoid the electrical stimulation. Induction was conducted for 2 consecutive days. In the avoidance training phase, a partition with an arch through which the rats could pass was inserted into the center of the shuttle cages. The method employed a standard shuttle avoidance in which a compound, conditioned stimulus (a 5 second presentation of a tone and turning on of a lamp on the side of the rat containing cage) served to indicate impending presentation of electrical stimulation to the floor of the cage. The electrical stimulation was presented for a 5 second period 5 seconds after initiation of the conditioned stimulus. […] A 30 second inter-trial interval was employed. 40 minute avoidance training sessions, consisting of 50 trials were conducted on 2 consecutive days, beginning 48 hours after the final induction session.
Dosages of all compounds are reported as the free base. […] Drug was administered immediately following conditioning and training sessions and approximately 7-8 hrs after the first injection, as well as on the day in the middle of the study when no conditioning or training was conducted. In study 2, imipramine was administered 30 minutes prior to avoidance training whereas in all other circumstances, drug was administered following training.
The primary dependent variable was escape failures during avoidance training. […] T-Tests were used to compare the performance of the vehicle-administered group to drug treated groups. The no-induction group was used to gauge whether learned helplessness was established, by comparison to the vehicle treated group.

We go through four compounds from patent US20120178763A1, “Method of Treating Anxious Major Depressive Disorder” (priority 2008, published 2012).

Each structure is given as a SMILES string. Entries after “also recorded” stand apart in the source; their conditions may differ. Bounds are passed on as bounds.

Consider `CCN(CC)C(=O)c1ccc([C@H](c2cccc(N)c2)N2CCN(Cc3ccc(F)cc3)CC2)cc1.CCN(CC)C(=O)c1ccc([C@H](c2cccc(N)c2)N2CCN(Cc3ccc(F)cc3)CC2)cc1.O=C(O)/C=C/C(=O)O.O=C(O)/C=C/C(=O)O.O=C(O)/C=C/C(=O)O` [Example 3, 4-{(R)-(3-aminophenyl)[4-(4-fluorobenzyl)piperazin-1-yl]methyl}-N,N-diethylbenzamide sesquifumarate], for which the “mean plasma exposures shown to be efficacious” value in data set [1] was no less than 2 ng/mL.

Consider `CN1C(=O)CN=C(c2ccccc2)c2cc(Cl)ccc21` [diazepam, reference compound], for which, in data set [2] (3.5 μmol/kg by mouth, data not shown), the “level of efficacy in the conflict model (punished responding)” value is recorded as roughly 250%.

Turning to `CCN(CC)C(=O)c1ccc([C@H](c2cccc(N)c2)N2CCN(Cc3ccc(F)cc3)CC2)cc1` [Example 2, 4-{(R)-(3-aminophenyl)[4-(4-fluorobenzyl)piperazin-1-yl]methyl}-N,N-diethylbenzamide], the entries for the “Mean Center Crossings ± SEM” value in data set [3] (0.1 mg/kg by mouth twice a day), in data set [3] (1 mg/kg by mouth twice a day) and in data set [3] (10 mg/kg by mouth twice a day) were 26.6 (0.85), 30.9 (2.9) and 26.9 (0.7), respectively. In addition, the results for the “Mean Escape Failures ± (SEM)” value in data set [3] (0.1 mg/kg by mouth twice a day), in data set [3] (1 mg/kg by mouth twice a day) and in data set [3] (10 mg/kg by mouth twice a day) were 6.1 (3.4), 3.1 (1.7) and 4.9 (2), respectively. The “effect on escape failures” value in data set [3] (0.1, 1 and 10 mg/kg by mouth twice a day, only the 2 higher doses significant, listed as Compound A) is recorded as “tended to decrease escape failures; also recorded: produced a decrease in escape failures”. Further, the “Percent of control, Punished responding” value in data set [2] (0.21 μmol/kg by mouth) is reported as 107 ± 19.3% of control; in data set [2] (0.63 μmol/kg by mouth) it was 273 ± 39.2% of control; in data set [2] (2.1 μmol/kg by mouth), 298 ± 132% of control; in data set [2] (6.3 μmol/kg by mouth), 207 ± 67.2% of control; in data set [2] (21.1 μmol/kg by mouth) it was 272 ± 100% of control. The “Percent of control, Unpunished responding” value is 103 ± 1.63% of control in data set [2] (0.21 μmol/kg by mouth); 92.1 ± 5.12% of control in data set [2] (0.63 μmol/kg by mouth); 106 ± 5.60% of control in data set [2] (2.1 μmol/kg by mouth); 106 ± 2.94% of control in data set [2] (6.3 μmol/kg by mouth); 95.5 ± 4.08% of control in data set [2] (21.1 μmol/kg by mouth). For the same compound, in data set [2] (0.21 μmol/kg by mouth), the “effect on punished responding” value is given as “not effective”. For the same compound, the “Rate of responding, Punished responding” value stood at 0.11 ± 0.02 in data set [2] (0.21 μmol/kg by mouth); 0.24 ± 0.03 in data set [2] (0.63 μmol/kg by mouth); 0.18 ± 0.04 in data set [2] (2.1 μmol/kg by mouth); 0.17 ± 0.03 in data set [2] (6.3 μmol/kg by mouth); 0.20 ± 0.04 in data set [2] (21.1 μmol/kg by mouth). The “Rate of responding, Unpunished responding” value in data set [2] (0.21 μmol/kg by mouth) came to 2.06 ± 0.11; in data set [2] (0.63 μmol/kg by mouth), 2.02 ± 0.14; in data set [2] (2.1 μmol/kg by mouth), 1.95 ± 0.15; in data set [2] (6.3 μmol/kg by mouth), 1.92 ± 0.13; in data set [2] (21.1 μmol/kg by mouth) it was 1.69 ± 0.12. Further, in data set [2] (2.11 μmol/kg by mouth), the “increase in punished responding (maximal efficacy)” value was “about 300%”. Besides, in data set [2] (0.63, 2.11, 6.3, and 21.1 μmol/kg compared to vehicle controls), the “effect on rate of punished responding” value is on record as “increased the rate of punished responding”. The “effect on unpunished responding” value in data set [2] (at the doses tested (0.21 to 21 μmol/kg)) is on record as “did not significantly decrease unpunished responding”. Besides, in data set [2] (modified Geller-Seifter conflict model), the “acute anxiolytic activity” value is “has acute anxiolytic activity”. Also, the “sedative/hyperactive properties” value in data set [2] (observations of test subjects in their home cage) is “does not possess sedative/hyperactive properties”.

With `CN(C)CCCN1c2ccccc2CCc2ccccc21` [Imipramine, imipramine, reference compound], the “Mean Escape Failures ± (SEM)” value in data set [3] (20 mg/kg by mouth twice a day) is listed as 2.3 (1).
